From patent publication US10869875B2, “Oxysterols and Hedgehog signaling” (MAX BIOPHARMA, INC., priority 2015, dated 2020) come the findings set out here.

Structures are written as SMILES.

The test system of experiment [1] is Hedgehog target gene Gli1. The experiment is described as follows: Expression of Hedgehog target gene Gli1 in NIH3T3 cells (quantitative RT-PCR). It counts as cell-based. Conditions: for gene expression of the Hedgehog target gene Gli1: in CM, 5 μM and 10 μM; for gene expression of the Hedgehog target gene Gli1 / Hedgehog signaling (Gli1 gene expression) / Gli1 gene expression relative to CM only / Hedgehog signaling (Gli1 gene expression) compared to the control: NIH3T3 cells; for gene expression of the Hedgehog target gene Gli1 / Hedgehog signaling (Gli1 gene expression): FIG. 7; for Hedgehog signaling (Gli1 gene expression): in the absence of CM; for Hedgehog signaling (Gli1 gene expression) compared to the control: without CM. As for the experimental part: The compounds described herein were tested on cell cultures to assess their effects on Hedgehog target genes PTCH and Gli1. Conditioned medium (CM) was collected from CAPAN-1 human pancreatic tumor cells grown to confluence in DMEM containing 10%0/fetal bovine serium (FBS) and contains Hh proteins that activate the Hh pathway in cells receiving the CM. After 7 days of incubation of confluent cells with the described medium, CM was collected, spun for 5 minutes at 1800 rpm to remove dead cells and debris, and then frozen at −80° C. For treating cells, CM was thawed and diluted 1:2 to 1:6 with DMEM containing 5% FBS. NIH3T3 cells, HepG2 and SUFU−/−MEF cells were cultured in 12-well plates with DMEM containing 10% FBS. The cells were then treated with DMEM containing 5% FBS or CM in the presence or absence of the compounds prepared in DMSO when they reach confluence. Quantitative RT-PCR was then performed according to the following approach. After 72 to 96 hours of the treatments, the cells were lysed and subjected to RNA extraction with RNease Plus Min kit (Qiagen). A portion of RNA from each well was subjected to Reverse Transcription (RT) using iScript Reverse Transcription Supermix (BioRad). QPCR was performed to test the expression of Hh target genes PTCH and Gli1 using IQ SYBR Green Supermix (BioRad).

The subject of experiment [2] is connective tissue growth factor (CTGF). The experiment is described as follows: TGFβ1 induced expression of CTGF in NIH3T3 cells (Q-RT-PCR). It is filed as cell-based. Particulars: 10 uM, recombinant human TGFβ1 at 20 ng/ml, 48 hours, FIG. 8. As for the experimental part: NIH3T3 cells were treated with recombinant human TGFβ1 at 20 ng/ml in the absence or presence of compound 21 at 10 uM. After 48 hours, RNA was extracted and analyzed by Q-RT-PCR for the expression of connective tissue growth factor (CTGF), a tumorigenic gene.

[3] abbreviates: 10 μM, in the presence of CM, FIG. 6, result in words.

With `C[C@]12CC[C@H]3[C@@H](CC=C4C[C@@H](O)CC[C@@]43C)[C@@H]1CC[C@@H]2[C@@](C)(O)CCc1cccnc1` [Oxy43, reference compound], in experiment [1], the “gene expression of the Hedgehog target gene Gli1” value is given as “greatly increased” and the “Hedgehog signaling (Gli1 gene expression)” value is “stimulated Hedgehog signaling”.
Turning to `C[C@]12CC[C@H]3[C@@H](CC=C4C[C@@H](O)CC[C@@]43C)[C@@H]1CC[C@@H]2[C@@](C)(O)CCc1ccc(F)cc1` [Oxy45, reference compound], the “Gli1 gene expression relative to CM only” value in experiment [1] (5 μM, in the presence of conditioned medium (CM), FIG. 6) is “more than 2 fold”; in experiment [1] (10 μM, in the presence of conditioned medium (CM), FIG. 6) it was “more than 2 fold”. Further, the “Hedgehog signaling (Gli1 gene expression) compared to the control” value (“Hedgehog signaling … compared to the control” below) in experiment [1] (10 μM, FIG. 6) is “stimulated Hedgehog signaling”.
Turning to `C[C@]12CC[C@H]3[C@@H](CC=C4C[C@@H](O)CC[C@@]43C)[C@@H]1CC[C@@H]2[C@](C)(O)CCc1cccnc1` [compound 21, (3S,8S,9S,10R,13S,14S,17S)-17-((R)-2-hydroxy-4-(pyridin-3-yl)butan-2-yl)-10,13-dimethyl-2,3,4,7,8,9,10,11,12,13,14,15,16,17-tetradecahydro-1H-cyclopenta[a]phenanthren-3-ol], in experiment [1], the “gene expression of the Hedgehog target gene Gli1” value is “decreased” and the “Hedgehog signaling (Gli1 gene expression)” value is “did not”. Moreover, in experiment [2], the “TGFβ1 induced expression of CTGF” value is listed as “inhibited”.
With `C[C@]12CC[C@H](O)C[C@@H]1CC[C@@H]1[C@@H]2CC[C@@]2(C)[C@H]1CC[C@@H]2[C@](C)(O)CCc1ccc(F)cc1` [compound 6, (3S,5S,8R,9S,10S,13S,14S,17S)-17-((R)-4-(4-fluorophenyl)-2-hydroxybutan-2-yl)-10,13-dimethylhexadecahydro-1H-cyclopenta[a]phenanthren-3-ol], the “Gli1 gene expression relative to CM only” value in experiment [1] (5 μM, in the presence of CM, FIG. 6, result in words) was “greatly decreased”; in experiment [1] (setting [3]), “greatly decreased”. In addition, the “Hedgehog signaling … compared to the control” value in experiment [1] (10 μM, FIG. 6) was “did not show this effect”. Moreover, in experiment [1] (comparison with compound 4 (C5-C6 double bond, C20 R-stereochemistry), FIG. 1), the “inhibition of Gli1 expression vs. compound 4” value is recorded as “increased”. In addition, the “inhibition of Gli1 expression vs. compound 18” value in experiment [1] (comparison with compound 18 (C20 S-stereochemistry, C5-C6 single bond), FIGS. 1 and 3) is on record as “increased”.
On to `C[C@]12CC[C@H]3[C@@H](CC=C4C[C@@H](O)CC[C@@]43C)[C@@H]1CC[C@@H]2[C@](C)(O)CCc1ccc(F)cc1` [compound 4, (3S,8S,9S,10R,13S,14S,17S)-17-((R)-4-(4-fluorophenyl)-2-hydroxybutan-2-yl)-10,13-dimethyl-2,3,4,7,89,10,11,12,13,14,15,16,17-tetradecahydro-1H-cyclopenta[a]phenanthren-3-ol], for which the “Gli1 gene expression relative to CM only” value in experiment [1] (setting [3]) is listed as “greatly decreased”. Moreover, in experiment [1] (10 μM, FIG. 6), the “Hedgehog signaling … compared to the control” value was “did not show this effect”.
